# Experimental data reported in US20140309309A1, “COSMETIC FORMULATION” (EVONIK INDUSTRIES AG, priority 2011, published 2014).
# Columns and labels:
# healthy female subjects [1] = experiment: Human study, upper arm: echogenicity of the skin (DermaScan C); format: in vivo; settings: twice daily
# Source text: The panel consisted of healthy female subjects of Caucasian origin up to 70 years old who were in their postmenopausal phase. The echogenicity of the skin on the upper arms of the subjects was at most 60% (DermaScan® C, B-scan mode). The formulations were applied to the upper arms. Vehicle formulation (vehicle) and formulation with different concentrations of N-hexanoyl-phytosphingosine (N-hexanoyl-phytosphingosine) was applied by in each case 16 subjects. In the non-inventive vehicle formulation, which serves as comparison formulation, the corresponding % by mass of N-hexanoyl-phytosphingosine were replaced by additional % by mass of water.
# (§1) Application was carried out twice daily, morning and evening, over a period of twelve weeks. Measurement points were before the start of application (T0), after four weeks (T4), after eight weeks (T8) and after twelve weeks (T12). A period over four weeks is accordingly referred to as T4-T0.
# The measurements were performed in a temperature- and humidity-controlled room (24±2° C., 50±10 relative humidity). The subjects were asked to apply no product up to twelve hours before measurement and to no longer wash their arms from three hours before measurement.
# The skin slackening was measured by measuring the echogenicity of the skin by means of a DermaScan® C ultrasound scanner. The echogenicity was recorded in the B-scan mode and given in %. […]
# healthy female subjects [2] = experiment: Human study, face: skin roughness (Primos Pico, Sa parameter); format: in vivo; settings: 0.2% by mass in formulation, twice daily, entire study period of twelve weeks (FIG. 2)
# Source text: (§2) The panel comprises 60 healthy female subjects of Caucasian origin up to 70 years of age who were in their postmenopausal phase (average age 59.4 years). The formulations were applied on the face. Vehicle formulation (vehicle) and N-hexanoyl-phytosphingosine formulation (N-hexanoyl-phytosphingosine) was each applied by 30 subjects. In the case of the non-inventive vehicle formulation, which serves as comparison formulation, the 0.2% by mass of N-hexanoyl-phytosphingosine were replaced by an additional 0.2% by mass of water.
# Application was carried out twice daily, morning and evening, over a period of twelve weeks. Measurement points were before the start of application (T0), after four weeks (T4), after eight weeks (T8) and after twelve weeks (T12). A period over four weeks is accordingly referred to as T4-T0. […]
# The roughness of the skin was determined by means of Primos Pico optical 3D-Sensor (GF Messtechnik GmbH). […] Bands are projected onto the surface of the skin and the projection is recorded under a defined triangulation angle by means of a CCD camera. The topography of the measured object is calculated by the position of the bands and the grey scales of all registered image points. […] The average roughness Sa was determined; this reflects the arithmetic mean of the skin roughness in the recorded image.
# healthy female subjects [3] = experiment: Human study, face: sagging of the skin assessed by a dermatologist (4-point scale); format: in vivo; settings: 0.2% by mass in formulation with 1,2-pentanediol, twice daily, twelve weeks, all time points, compared with vehicle group (FIG. 1)
# Source text: as §2, §1
# (§3) The measurements were performed in a temperature- and humidity-controlled room (24±2° C., 50±10 relative humidity). The subjects were requested to apply no product up to twelve hours prior to measurement and to wash their face three hours before measurement.
# The sagging of the skin was assessed by a dermatologist by means of visual and tactile evaluation by reference to a 4-point scale (0=absent, 1=minimum, 2=moderate, 3=maximum).
# [4] = test system: differentiated human adipocytes; experiment: Gene expression in differentiated human adipocytes (Affymetrix GeneChip); format: cell-based; settings: 2.5 μM, 6 h, vs vehicle-treated adipocytes
# Experimental: This example investigated the effect of N-hexanoyl-phytosphingosine on the gene expression in differentiated human adipocytes.
# Cells, media and reagents were acquired from PromoCell. The cultivation was carried out in accordance with the protocol from PromoCell. Unless stated otherwise, the cells were cultivated at 37° C. and 5% CO2. Firstly, proliferating subcutaneous primary human white preadipocytes (HWP) from two different donors were cultivated in a special preadipocyte growth medium until complete confluence was reached. The medium was then exchanged for a special differential medium, and the cells were incubated with this medium for 72 hours. The medium was then exchanged for a further medium (Adipocyte Nutrition Medium) in order to conclude the differentiation process. The cells were further incubated with this medium for twelve days, with media exchange being carried out every three days. Ultimately, the medium was removed from the cells and replaced by fresh medium containing N-hexanoyl-phytosphingosine. The vehicle used was methanol, the end concentration of the vehicle in the medium being 0.05% (v/v). End concentration of N-hexanoyl-phytosphingosine in the medium was 2.5 μM. As the control, the cultivation was carried out without active ingredient, only with medium (vehicle). All of the cultivations were performed twice (with cells from two different donors).
# (§4) After cultivation for six hours, the medium was removed and the cells were lysed by adding RNeasy Lysis Buffer (Qiagen). Isolation of whole-RNA was carried out in accordance with manufacturer's instructions. Combined, the whole-RNA was isolated by means of RNeasy Mini Kit (Qiagen). The RNA concentration was determined by spectrophotometry using a SmartSpec Plus (Biorad). Purity and integrity of the RNA were determined using Agilent 2100 Bioanalyzer with a 6000 Nano LabChip reagent set (Agilent Technologies, Inc.). RNA samples were stored at −80° C. until further processing.
# (§5) Analysis of the gene expression was carried out using Affymetrix HGU133 plus 2.0 GeneChips (Affymetrix), with 2 μg of whole-RNA being used. For this, the RNA of the two different donor cultures was pooled. Expression analyses including standard data evaluation were carried out in accordance with manufacturer's instructions (Affymetrix.).
# [5] = Percutaneous absorption study on a pig skin model; format: in vitro ADME; settings: 0.2% in formulation in combination with 1.80% 1,2-pentanediol vs corresponding formulations without 1,2-pentanediol (FIG. 4)
# Experimental: The increase in the skin penetration of N-hexanoyl-phytosphingosine from a cosmetic formulation as a result of adding 1,2-pentanediol was shown in the course of a percutaneous absorption study on a pig skin model. In practice, the study was performed in accordance with a current protocol, as described for example in S. Richert, A. Schrader, K. Schrader, Int. J. Cosmet. Sci. 2003, 25, 5-13.
# healthy female subjects [6] = experiment: Human study, face: echogenicity of the skin (DermaScan C); format: in vivo; settings: 0.2% by mass in formulation, twice daily
# Source text: as §2, §1, §3
# The echogenicity of the skin was measured using a DermaScan® C ultrasound scanner. The instrument is based on the physical principle of the ultrasound emission of a transducer. […] Their intensity is detected by a microprocessor. […] The echogenicity was recorded in the B-scan mode and given in %. […]
# human dermal fibroblasts = experiment: Gene expression in human dermal fibroblasts (Affymetrix GeneChip); format: cell-based; settings: 5 μM, 24 h, vs vehicle-treated fibroblasts
# Source text: The present example investigates the effect of N-hexanoyl-phytosphingosine on the gene expression in fibroblasts (normal human dermal fibroblasts, NHDFs).
# For this, firstly primary human dermal fibroblasts (human dermal fibroblasts derived from neonatal skin, HDF), cryopreserved, Lifeline Cell Technology, acquired via CellSystems® Biotechnologie Vertrieb GmbH, in Minimum Essential Medium (MEM) with Earle's salts (EMEM) (PAA Laboratories GmbH) were cultivated with the addition of 10% foetal bovine serum (FBS, Invitrogen Ltd, UK), 1% nonessential amino acids (NEAA) (100×) (PAA Laboratories GmbH), 1% L-glutamine (100×) (Invitrogen Ltd) and 1% penicillin/streptomycin (5000 U/mL penicillin and 5000 μg/mL streptomycin/mL, (Invitrogen Ltd) at 37° C. and 5% CO2. For gene expression studies, the cells were sown out in 6-well plates and cultivated to the point of subconfluence (maximum 60%).
# Then, the medium was removed from the cells and replaced by fresh medium containing N-hexanoyl-phytosphingosine. The vehicle used was methanol, the end concentration of the vehicle in the medium being 0.05% (v/v). The end concentration of N-hexanoyl-phytosphingosine in the medium was 5 μM. As the control, the cultivation was carried out without active ingredient, only with medium (vehicle). All of the cultivations were performed twice (with cells from two different donors).
# as §4, with “24” for “six”
# as §5, with “(AFFYMETRIX, INC.).” for “(Affymetrix.).”
smiles,measurement,setting,value
CCCCCCCCCCCCCC[C@@H](O)[C@@H](O)[C@H](CO)NC(=O)CCCCC [N-hexanoyl-phytosphingosine],echogenicity of the skin on the upper arm compared with the starting value,"healthy female subjects [1]; 0.02% in formulation, increase only measurable after a treatment time of eight weeks (FIG. 5)",less marked
same,echogenicity of the skin on the upper arm compared with the starting value,"healthy female subjects [1]; 0.05% in formulation, four, eight and twelve weeks (FIG. 5)",increase in the echogenicity of the skin
same,change in skin roughness (Sa parameter),healthy female subjects [2],steadily further reduced
same,decrease in sagging of the skin,healthy female subjects [3],more marked
same,Regulation of the gene expression by N-hexanoyl-phytosphingosine: ACACA (acetyl-coenzyme A carboxylase alpha),[4],+1.5 fold
same,Regulation of the gene expression by N-hexanoyl-phytosphingosine: ADIPOQ (adiponectin),[4],+2.2 fold
same,"Regulation of the gene expression by N-hexanoyl-phytosphingosine: CEBPB (CAAT/enhancer binding protein (C/EBP), beta)",[4],+2.1 fold
same,Regulation of the gene expression by N-hexanoyl-phytosphingosine: FAS (fatty acid synthase),[4],+1.4 fold
same,Regulation of the gene expression by N-hexanoyl-phytosphingosine: LEP (leptin),[4],+2.7 fold
same,Regulation of the gene expression by N-hexanoyl-phytosphingosine: LEPR (leptin receptor),[4],+4.1 fold
same,Regulation of the gene expression by N-hexanoyl-phytosphingosine: LIPC (lipase),[4],−2.5 fold
same,"Regulation of the gene expression by N-hexanoyl-phytosphingosine: PPARD (peroxisome proliferator activated receptor, delta)",[4],+1.7 fold
same,"Regulation of the gene expression by N-hexanoyl-phytosphingosine: PPARG (peroxisome proliferator activated receptor, gamma)",[4],+2.5 fold
same,Regulation of the gene expression by N-hexanoyl-phytosphingosine: THBS1 (thrombospondin 1),[4],+5.9 fold
same,bioavailability (skin penetration) of N-hexanoyl-phytosphingosine from formulation,[5],increase in bioavailability
same,change in the echogenicity of the skin,healthy female subjects [6]; after four weeks (T4-T0) (FIG. 3),slight decrease in echogenicity
same,change in the echogenicity of the skin,healthy female subjects [6]; as the study progressed (to T12) (FIG. 3),steadily improved
same,Regulation of the gene expression by N-hexanoyl-phytosphingosine: ACAN (aggrecan),human dermal fibroblasts,+1.7 fold
same,"Regulation of the gene expression by N-hexanoyl-phytosphingosine: COL10A1 (collagen, type X, alpha 1)",human dermal fibroblasts,+3.2 fold
same,"Regulation of the gene expression by N-hexanoyl-phytosphingosine: COL11A1 (collagen, type XI, alpha 1)",human dermal fibroblasts,+2.2 fold
same,Regulation of the gene expression by N-hexanoyl-phytosphingosine: FGF18 (fibroblast growth factor 18),human dermal fibroblasts,+2.2 fold
same,Regulation of the gene expression by N-hexanoyl-phytosphingosine: HAPLN1 (hyaluronan and proteoglycan link protein),human dermal fibroblasts,+4.1 fold
same,Regulation of the gene expression by N-hexanoyl-phytosphingosine: IGF1 (insulin-like growth factor 1),human dermal fibroblasts,+2.0 fold
same,Regulation of the gene expression by N-hexanoyl-phytosphingosine: ITGA2 (integrin alpha-2),human dermal fibroblasts,+1.6 fold
same,Regulation of the gene expression by N-hexanoyl-phytosphingosine: LEP (leptin),human dermal fibroblasts,+2.2 fold
same,Regulation of the gene expression by N-hexanoyl-phytosphingosine: MMP3 (matrix metallopeptidase 3),human dermal fibroblasts,−1.4 fold
